This note sets out measurements from patent US4309559A, “Sulphonamides useful as pesticides” (FBC Limited, priority 1977, dated 1982).

For assay [1], the system named is Peas (Pisum sativum). Briefly: Post-emergence foliar spray, herbicidal/growth regulant response, peas. The assay is classed as in vivo. To be noted: Lathyrus oleraceus, 168 h, foliar spray 11.2 kg/ha, 7 days, 0=no effect, 100=complete kill, read-out: herbicidal or growth regulant response index. The protocol: (§1) Seeds of the plant species listed below were sown in anodised aluminium pans, 19 cm long×9.5 cm wide×5 cm deep, containing John Innes I potting compost. They were then watered and placed in a controlled environment room (22° C.; 65-85% relative humidity; 14 hours per day artificial illumination at 13,000 lux). Fourteen days after sowing, the seedlings received a foliar spray of a compound listed below, formulated as a solution in 1:1 by volume aqueous acetone. The concentration of active ingredient and volume of application were adjusted so as to be equivalent to a rate of 11.2 kg/ha in 450 liters per hectare. After seven days growth in the controlled environment room, the plants were visually assessed for any herbicidal or growth regulant response. All differences from the untreated control were scored according to an index where 0=no effect and 100=complete kill.
(§2) The product of Example 95 was tested according to the procedure of Examples 49-55.

The test system of assay [2] is Mustard (Sinapis alba). The assay is described as follows: Post-emergence foliar spray, herbicidal/growth regulant response, mustard. To be noted: 168 h, foliar spray 11.2 kg/ha, 7 days, 0=no effect, 100=complete kill, read-out: herbicidal or growth regulant response index. The assay is classed as in vivo. The method, then:
as §1, §2

Assay [3] deals with Linseed (Linum usitatissimum). Briefly: Post-emergence foliar spray, herbicidal/growth regulant response, linseed. Format: in vivo. To be noted: 168 h, foliar spray 11.2 kg/ha, 7 days, 0=no effect, 100=complete kill, read-out: herbicidal or growth regulant response index. The method, then: as §1, §2
The test system of assay [4] is Ryegrass (Lolium perenne). Briefly: Post-emergence foliar spray, herbicidal/growth regulant response, ryegrass. The assay is classed as in vivo. The note with it: 168 h, foliar spray 11.2 kg/ha, 7 days, 0=no effect, 100=complete kill, read-out: herbicidal or growth regulant response index. The protocol:
as §1, §2

In assay [5] the test system is Sugarbeet (Beta vulgaris). The assay is described as follows: Post-emergence foliar spray, herbicidal/growth regulant response, sugarbeet. Format: in vivo. The note with it: 168 h, foliar spray 11.2 kg/ha, 7 days, 0=no effect, 100=complete kill, read-out: herbicidal or growth regulant response index. The method, then:
as §1, §2

In assay [6] the test system is Oat (Avena sativa). The assay is described as follows: Post-emergence foliar spray, herbicidal/growth regulant response, oat. Format: in vivo. To be noted: 168 h, foliar spray 11.2 kg/ha, 7 days, 0=no effect, 100=complete kill, read-out: herbicidal or growth regulant response index. The protocol: as §1, §2
The test system of assay [7] is Peas (Pisum sativum). Briefly: Soil incorporation (attaclay/sand dust), growth regulatory or herbicidal effects, peas. Format: in vivo. To be noted: Lathyrus oleraceus, 504 h, soil incorporation 130 ppm, 21 days, 0=no effect, 100=complete kill/suppression, read-out: growth regulatory or herbicidal effect score. An excerpt: (§3) The compounds listed below were each formulated as an attaclay/sand dust and incorporated into John Innes I potting compost at a rate equivalent to 26 parts per million weight/volume of active ingredient to soil and placed in anodised aluminium pans, 19 cm long×9.5 cm wide×5.0 cm deep. This rate is approximately equivalent to a soil surface application of 11.2 kg active ingredient/hectare cultivated to a depth of 5 cm. Seeds of the species listed below were sown in the treated soil, watered and placed in a controlled environment room (22° C.; 65-85% relative humidity; 14 hours per day artificial illumination at 13,000 lux) for 21 days. The plants were then visually assessed for any growth regulatory or herbicidal effects. All differences from an untreated control were scored on a scale from 0-100, where 0 signifies no effect and 100 signifies complete kill.
(§4) The compounds listed below were tested according to the procedure of Examples 56-60 but at 130 parts per million weight/volume of active ingredient to soil. This rate is approximately equivalent to a soil surface application of 56 kg active ingredient per hectare cultivated to a depth of 5 cm.
(§5) The product of Example 95 was tested according to the procedure of Examples 56-60 but at 130 and 26 parts per million weight/volume. The results were as follows:
(§6) N-(2-oxopropyl)-2'-chloro-6'-methyl-methanesulphonanilide, formulated as an attaclay/sand dust, was incorporated in John Innes I potting compost at a rate equivalent to 130 parts per million weight/volume of active ingredient to soil and placed in anodised aluminium pans, 19 cm long×9.5 cm wide×5.0 cm deep. These rates are approximately equivalent to a soil surface application of 56 kg active ingredient per hectare cultivated to a depth of 5 cm. Seeds of Peas, Mustard, Linseed, Maize, Oats and Ryegrass were sown in the treated soil, watered and placed in a controlled environment room (22° C.; 65-85% relative humidity; 14 hours artificial illumination at 13000 lux) for 21 days.
(§7) The plants were then visually assessed for any growth regulatory or herbicidal effects. All differences from an untreated control were scored on a scale from 0-100, where 0 signifies no effect and 100 signifies complete suppression.

Assay [8] relates to Mustard (Sinapis alba). Briefly: Soil incorporation (attaclay/sand dust), growth regulatory or herbicidal effects, mustard. The assay is classed as in vivo. The note with it: 504 h, soil incorporation 130 ppm, 21 days, 0=no effect, 100=complete kill/suppression, read-out: growth regulatory or herbicidal effect score.
Text: as §3, §4, §5, §6, §7

For assay [9], the system named is Linseed (Linum usitatissimum). The assay is described as follows: Soil incorporation (attaclay/sand dust), growth regulatory or herbicidal effects, linseed. The assay is classed as in vivo. The note with it: 504 h, soil incorporation 130 ppm, 21 days, 0=no effect, 100=complete kill/suppression, read-out: growth regulatory or herbicidal effect score.
Text: as §3, §4, §5, §6, §7

Assay [10] concerns Maize (Zea mays). Briefly: Soil incorporation (attaclay/sand dust), growth regulatory or herbicidal effects, maize. The assay is classed as in vivo. The note with it: 504 h, soil incorporation 130 ppm, 21 days, 0=no effect, 100=complete kill/suppression, read-out: growth regulatory or herbicidal effect score.
Text: as §3, §4, §5, §6, §7

For assay [11], the system named is Oats (Avena sativa). The assay is described as follows: Soil incorporation (attaclay/sand dust), growth regulatory or herbicidal effects, oats. To be noted: 504 h, soil incorporation 130 ppm, 21 days, 0=no effect, 100=complete kill/suppression, read-out: growth regulatory or herbicidal effect score. Format: in vivo.
Text: as §3, §4, §5, §6, §7

Assay [12] has as its system Ryegrass (Lolium perenne). Briefly: Soil incorporation (attaclay/sand dust), growth regulatory or herbicidal effects, ryegrass. Format: in vivo. To be noted: 504 h, soil incorporation 130 ppm, 21 days, 0=no effect, 100=complete kill/suppression, read-out: growth regulatory or herbicidal effect score.
Text: as §3, §4, §5, §6, §7

In assay [13] the test system is Pythium ultimum. The assay is described as follows: Fungal growth on the surface of soil infected with damping-off disease organism. The note with it: 6 days, 25° C. The assay is classed as in vivo. The method, then:
(§8) A one week old maize meal/sand culture of the damping-off disease organism Pythium ultimum was thoroughly mixed by hand with clean sterile John Innes No. 1 potting compost in the ratio of 3 kg culture to 12 liters of soil. The infected soil was then left for approximately 18 hours before use. Each of the compounds listed below was ground together with a wetting agent, Tween 20 (1% of final volume), until a solution or fine suspension was produced which was then diluted with distilled water to give 160 ml of solution containing 1500, 500, 150 or 50 ppm active ingredient. 15 ml aliquots of this solution were added to 75 g portions of the soil infected with Pythium ultimum which were contained in small plastic cartons, 60 mm diameter×55 mm high. Fifteen cabbage seeds, variety Flower of Spring, were placed in a circular depression in the treated infected soil, recovered, and the whole sealed with a plastic cap. The cartons were then placed in a constant temperature room at 25° C.±1° C. Four replications per treatment were made with one additional treatment where seeds were sown in soil which was chemically treated only, i.e. there was no infection. This latter treatment was included to measure the direct effect of the chemical on the germination of the seed. After six days the cartons were removed from the controlled temperature chamber and assessed for degree of fungal growth on the soil surface and percentage of seedling emergence. The results of both these assessments are expressed in a 0-8 scale as follows:
(§9) One week old maize meal/sand culture of the damping-off disease organism Pythium ultimum was thoroughly mixed by hand with clean sterile John Innes No. 1 potting compost in the ratio of 3 kg culture to 12 liters of soil. This infected soil was then left for approximately 18 hours before use. The compounds listed in the Table below were each ground with the wetting agent Tween 20 (1% of final volume), until a solution or fine suspension was produced, which was then diluted with distilled water to give 160 ml of solution containing 1500 or 500 parts per million (ppm) active ingredient. 15 ml aliquots of this solution were added to 75 g portions of the soil infected with Pythium ultimum which were contained in small plastic cartons, 60 mm diameter×55 mm high.
(§10) Fifteen cabbage seeds, variety Flower of Spring, were placed in a circular depression in the treated infected soil, recovered, and the whole sealed with a plastic cap. The cartons were then placed in a constant temperature room at 25° C.±1° C. Four replications per treatment were made, with one additional treatment where seeds were sown in soil which was chemically treated only, i.e. there was no infection. This latter treatment was included to measure the direct effect of the chemical on the germination of the seed.
(§11) After six days, the cartons were removed from the controlled temperature chamber and assessed for degree of fungal growth on the soil surface and percentage of seedling emergence. The results of both these assessments are expressed in a 0-8 scale as follows:
(§12) N-(2-oxopropyl)-3',4'-dimethyl-methanesulphonanilide was tested at a dose rate of 300 ppm in the test described in Examples 233 and 234. It gave a mycelial control score of 0 and a germination score of 3 whereas the untreated samples gave a score of 0 for both.

For assay [14], the system named is Pythium ultimum. The assay is described as follows: Cabbage seedling emergence in soil infected with Pythium ultimum. The assay is classed as in vivo, Pythium ultimum (on cabbage, variety Flower of Spring). The note with it: 6 days, 25° C. The protocol: as §8, §9, §10, §11, §12
Where [15] appears, read: 300 ppm, 0-8 scale (Examples 233, 234, 268).

For `CCOC(=O)C(C)N(c1ccccc1Cl)S(C)(=O)=O` (centres unmarked) [Example 25], the pest or weed control at 11200 g/ha in assay [1] came out at 5%; in assay [2], 80%; in assay [3], 20%; in assay [4], 0%. The plant injury at 11200 g/ha was 30% in assay [5] and 20% in [6]. For the same molecule, the pest or weed control at 130 µg/mL was 5% in assay [7], 100% in assay [8], 50% in assay [9] and 0% in assay [12]. Besides, the plant injury at 130 µg/mL in assay [10] worked out at 40%; in assay [11], 20%.

As for `CC1(CN(c2ccc(Cl)cc2)S(C)(=O)=O)OCCO1` [Example 228, N-[(2-methyl-1,3-dioxolan-2-yl)methyl]-4'-chloro-methanesulphonanilide], in assay [13] (setting [15]), the “Mycelial Control Score” value is on record as 8 (>94% inhibition). In assay [14] (setting [15]), the “Germination Score” value was 0 (<20% inhibition).

As to `CCS(=O)(=O)N(c1c(C)cccc1C)C(C)C(=O)O` (centres unmarked) [Example 9], the pest or weed control at 130 µg/mL is 50% in [7], 70% in assay [8], 80% in assay [9] and 20% in assay [12]. In addition, the plant injury at 130 µg/mL in assay [10] is 30%; in assay [11], 20%. Also, the “Mycelial Control Score” value in assay [13] (30 ppm, 0-8 scale) was 0 (<20% inhibition); in assay [13] (100 ppm, 0-8 scale), 0 (<20% inhibition); in assay [13] (300 ppm, 0-8 scale), 0 (<20% inhibition). Besides, the “Germination Score” value in [14] (30 ppm, 0-8 scale) is given as 1 (20-34% inhibition); in assay [14] (100 ppm, 0-8 scale) it was 5 (65-74% inhibition); in [14] (300 ppm, 0-8 scale), 5 (65-74% inhibition).

Turning to `CC(C)c1ccccc1N(CC#N)S(C)(=O)=O` [Example 47], the pest or weed control at 130 µg/mL was determined as 10% in assay [7], 80% in assay [8], 100% in [9] and 50% in [12]. Moreover, the plant injury at 130 µg/mL in assay [10] was determined as 10%; in assay [11], 30%.

As to `CCCCS(=O)(=O)N(c1c(C)cccc1C)C(C)C(=O)OCC` (centres unmarked) [Example 27], the pest or weed control at 11200 g/ha in assay [1] amounted to 5%; in assay [2], 100%; in [3], 70%; in assay [4] it was 20%. The figures for the plant injury at 11200 g/ha in assay [5] and in assay [6] were 90% and 30%, respectively. Moreover, the pest or weed control at 130 µg/mL in [7] is 20%; in assay [8] it was 100%; in assay [9] it was 100%; in [12] it was 100%. Besides, the plant injury at 130 µg/mL in assay [10] and in [11] was 100% each time.

On to `CS(=O)(=O)N(CC#N)c1cccc(C(F)(F)F)c1` [Example 48], for which the pest or weed control at 130 µg/mL in [7] came to 50%; in assay [8] it was 100%; in assay [9], 100%; in [12] it was 90%. In addition, the plant injury at 130 µg/mL was 40% in assay [10] and 80% in [11].

As to `CCc1ccccc1N(C(C)C(=O)O)S(C)(=O)=O` (centres unmarked) [Example 5], the pest or weed control at 130 µg/mL was 30% in assay [7], 50% in [8], 70% in [9] and 20% in assay [12]. The plant injury at 130 µg/mL in assay [10] and in assay [11] was 30% throughout.
